Reference: patent US10023570B2 (Array BioPharma, Inc., priority 2015, dated 2018)
Where a name gives a salt, the structure may show the parent alone.

Biological target: human KDR protein in HEK-293 cells (Homo sapiens (Human), UniProt P35968)
Experiment: KDR Cell Assay (phospho-KDR in HEK-293 cells expressing inducible KDR)
Format: cell-based
Details: pKDR Cell HEK 10% FBS IC50, HEK-293 cells expressing inducible KDR, VEGF stimulated
Procedure, shortened: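 HEK-293 cells with inducible human KDR were treated with compound for 1 h in DMEM (0.25% DMSO final), then lysed. Phospho-KDR was quantified by Meso Scale immunoassay, expressed as percent of control, and IC50 taken where a 4-parameter logistic fit crossed 50 POC.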

Chain of human KDR protein in HEK-293 cells (P35968 20-1356): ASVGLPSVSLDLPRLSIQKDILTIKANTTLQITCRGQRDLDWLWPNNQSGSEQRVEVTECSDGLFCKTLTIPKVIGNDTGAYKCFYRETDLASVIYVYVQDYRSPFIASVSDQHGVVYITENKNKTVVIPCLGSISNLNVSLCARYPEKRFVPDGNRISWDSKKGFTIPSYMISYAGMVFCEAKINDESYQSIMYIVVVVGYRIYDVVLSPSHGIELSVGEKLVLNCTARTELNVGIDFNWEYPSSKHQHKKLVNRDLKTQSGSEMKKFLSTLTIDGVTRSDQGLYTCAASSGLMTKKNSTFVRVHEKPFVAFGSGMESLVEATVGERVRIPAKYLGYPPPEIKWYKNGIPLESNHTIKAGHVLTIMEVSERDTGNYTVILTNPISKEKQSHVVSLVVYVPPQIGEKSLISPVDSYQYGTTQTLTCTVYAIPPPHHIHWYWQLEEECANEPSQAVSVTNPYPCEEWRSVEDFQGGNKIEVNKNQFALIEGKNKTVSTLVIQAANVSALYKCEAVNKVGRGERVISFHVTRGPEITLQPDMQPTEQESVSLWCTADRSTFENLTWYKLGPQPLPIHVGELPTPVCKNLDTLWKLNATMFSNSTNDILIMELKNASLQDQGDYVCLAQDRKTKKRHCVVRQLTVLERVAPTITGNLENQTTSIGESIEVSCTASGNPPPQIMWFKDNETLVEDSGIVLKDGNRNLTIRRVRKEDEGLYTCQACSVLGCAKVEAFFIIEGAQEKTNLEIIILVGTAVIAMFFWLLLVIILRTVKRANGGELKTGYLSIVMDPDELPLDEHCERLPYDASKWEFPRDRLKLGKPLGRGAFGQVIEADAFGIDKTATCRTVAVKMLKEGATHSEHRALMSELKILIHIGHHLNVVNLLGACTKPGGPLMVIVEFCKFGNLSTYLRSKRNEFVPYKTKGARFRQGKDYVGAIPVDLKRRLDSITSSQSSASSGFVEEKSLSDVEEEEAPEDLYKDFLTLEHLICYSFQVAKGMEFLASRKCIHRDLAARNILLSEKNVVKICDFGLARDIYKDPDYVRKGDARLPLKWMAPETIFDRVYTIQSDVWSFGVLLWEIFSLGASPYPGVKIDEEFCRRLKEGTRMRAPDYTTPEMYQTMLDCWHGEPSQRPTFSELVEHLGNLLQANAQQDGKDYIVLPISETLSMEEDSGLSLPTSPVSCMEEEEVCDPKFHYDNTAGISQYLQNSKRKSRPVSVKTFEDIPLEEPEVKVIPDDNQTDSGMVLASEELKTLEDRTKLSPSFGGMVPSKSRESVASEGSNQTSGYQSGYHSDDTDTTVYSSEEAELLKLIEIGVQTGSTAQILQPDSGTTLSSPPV

IC50 [nM]	SMILES
828	Cn1cc(-c2cc(-c3ccc(N4CCN(CCOC5CC5)CC4)nc3)c3c(C#N)cnn3c2)cn1 [Example 407, 4-(6-(4-(2-cyclopropoxyethyl)piperazin-1-yl)pyridin-3-yl)-6-(1-methyl-1H-pyrazol-4-yl)pyrazolo[1,5-a]pyridine-3-carbonitrile]
1300	CCCN1CCN(c2ccc(-c3cc(-c4cnn(C)c4)cn4ncc(C#N)c34)cn2)CC1 [Example 408, 6-(1-methyl-1H-pyrazol-4-yl)-4-(6-(4-propylpiperazin-1-yl)pyridin-3-yl)pyrazolo[1,5-a]pyridine-3-carbonitrile]
1670	CCN1CCN(c2ccc(-c3cc(-c4cnn(C)c4)cn4ncc(C#N)c34)cn2)CC1 [Example 409, 4-(6-(4-ethylpiperazin-1-yl)pyridin-3-yl)-6-(1-methyl-1H-pyrazol-4-yl)pyrazolo[1,5-a]pyridine-3-carbonitrile]
1630	CC(C)N1CCN(c2ccc(-c3cc(-c4cnn(C)c4)cn4ncc(C#N)c34)cn2)CC1 [Example 410, 4-(6-(4-isopropylpiperazin-1-yl)pyridin-3-yl)-6-(1-methyl-1H-pyrazol-4-yl)pyrazolo[1,5-a]pyridine-3-carbonitrile]
263	Cn1cc(-c2cc(-c3ccc(N4CCN(CCc5ccccc5)CC4)nc3)c3c(C#N)cnn3c2)cn1 [Example 411, 6-(1-methyl-1H-pyrazol-4-yl)-4-(6-(4-phenethylpiperazin-1-yl)pyridin-3-yl)pyrazolo[1,5-a]pyridine-3-carbonitrile]
1510	Cn1cc(-c2cc(-c3ccc(N4CCN(CC(F)F)CC4)nc3)c3c(C#N)cnn3c2)cn1 [Example 418, 4-(6-(4-(2,2-difluoroethyl)piperazin-1-yl)pyridin-3-yl)-6-(1-methyl-1H-pyrazol-4-yl)pyrazolo[1,5-a]pyridine-3-carbonitrile]
1900	Cn1cc(-c2cc(-c3ccc(N4CCN(CC(F)(F)F)CC4)nc3)c3c(C#N)cnn3c2)cn1 [Example 419, 6-(1-methyl-1H-pyrazol-4-yl)-4-(6-(4-(2,2,2-trifluoroethyl)piperazin-1-yl)pyridin-3-yl)pyrazolo[1,5-a]pyridine-3-carbonitrile]
1620	C[C@H](c1ccccc1)N1CCN(c2ccc(-c3cc(-c4cnn(C)c4)cn4ncc(C#N)c34)cn2)CC1 [Example 421, (R)-6-(1-methyl-1H-pyrazol-4-yl)-4-(6-(4-(1-phenylethyl)piperazin-1-yl)pyridin-3-yl)pyrazolo[1,5-a]pyridine-3-carbonitrile dihydrochloride]
942	C[C@@H](c1ccccc1)N1CCN(c2ccc(-c3cc(-c4cnn(C)c4)cn4ncc(C#N)c34)cn2)CC1 [Example 422, (S)-6-(1-methyl-1H-pyrazol-4-yl)-4-(6-(4-(1-phenylethyl)piperazin-1-yl)pyridine-3-yl)pyrazolo[1,5-a]pyridine-3-carbonitrile dihydrochloride]
1370	Cn1cc(-c2cc(-c3ccc(N4CCN(Cc5cncc(F)c5)CC4)nc3)c3c(C#N)cnn3c2)cn1 [Example 423, 4-(6-(4-((5-fluoropyridin-3-yl)methyl)piperazin-1-yl)pyridin-3-yl)-6-(1-methyl-1H-pyrazol-4-yl)pyrazolo[1,5-a]pyridine-3-carbonitrile]
630	Cn1cc(-c2cc(-c3ccc(N4CCN(Cc5ccc(F)cc5)CC4)nc3)c3c(C#N)cnn3c2)cn1 [Example 424, 4-(6-(4-(4-fluorobenzyl)piperazin-1-yl)pyridin-3-yl)-6-(1-methyl-1H-pyrazol-4-yl)pyrazolo[1,5-a]pyridine-3-carbonitrile]

The remaining lines, values behind:

SMILES	IC50 [nM]
COC1CCN(C(=O)N2CCN(c3ccc(-c4cc(-c5cnn(C)c5)cn5ncc(C#N)c45)cn3)CC2)CC1 [Example 376, 4-(6-(4-(4-methoxypiperidine-1-carbonyl)piperazin-1-yl)pyridin-3-yl)-6-(1-methyl-1H-pyrazol-4-yl)pyrazolo[1,5-a]pyridine-3-carbonitrile]	1830
CCCCN(C(=O)N1CCN(c2ccc(-c3cc(-c4cnn(C)c4)cn4ncc(C#N)c34)cn2)CC1)c1ccccc1 [Example 377, N-butyl-4-(5-(3-cyano-6-(1-methyl-1H-pyrazol-4-yl)pyrazolo[1,5-a]pyridin-4-yl)pyridine-2-yl)-N-phenylpiperazine-1-carboxamide]	2030
Cn1cc(-c2cc(-c3ccc(N4CCN(C(=O)N5CC[C@H](c6ccccc6)C5)CC4)nc3)c3c(C#N)cnn3c2)cn1 [Example 378, (R)-6-(1-methyl-1H-pyrazol-4-yl)-4-(6-(4-(3-phenylpyrrolidine-1-carbonyl)piperazin-1-yl)pyridin-3-yl)pyrazolo[1,5-a]pyridine-3-carbonitrile]	467
Cn1cc(-c2cc(-c3ccc(N4CCN(C(=O)N5CC6CC6C5)CC4)nc3)c3c(C#N)cnn3c2)cn1 (centres unmarked) [Example 380, 4-(6-(4-(3-azabicyclo[3.1.0]hexane-3-carbonyl)piperazin-1-yl)pyridin-3-yl)-6-(1-methyl-1H-pyrazol-4-yl)pyrazolo[1,5-a]pyridine-3-carbonitrile]	555
Cn1cc(-c2cc(-c3ccc(N4CCN(C(=O)N5CCN6CCCC6C5)CC4)nc3)c3c(C#N)cnn3c2)cn1 (centres unmarked) [Example 381, 6-(1-methyl-1H-pyrazol-4-yl)-4-(6-(4-(octahydropyrrolo[1,2-a]pyrazine-2-carbonyl)piperazin-1-yl)pyridin-3-yl)pyrazolo[1,5-a]pyridine-3-carbonitrile]	811
COc1ccccc1N(C)C(=O)N1CCN(c2ccc(-c3cc(-c4cnn(C)c4)cn4ncc(C#N)c34)cn2)CC1 [Example 382, 4-(5-(3-cyano-6-(1-methyl-1H-pyrazol-4-yl)pyrazolo[1,5-a]pyridin-4-yl)pyridine-2-yl)-N-(2-methoxyphenyl)-N-methylpiperazine-1-carboxamide]	1710
COc1ccc(N(C)C(=O)N2CCN(c3ccc(-c4cc(-c5cnn(C)c5)cn5ncc(C#N)c45)cn3)CC2)cc1 [Example 383, 4-(5-(3-cyano-6-(1-methyl-1H-pyrazol-4-yl)pyrazolo[1,5-a]pyridine-4-yl)pyridin-2-yl)-N-(4-methoxyphenyl)-N-methylpiperazine-1-carboxamide]	639
Cn1cc(-c2cc(-c3ccc(N4CCN(C(=O)N5CC6C(C5)C6(C)C)CC4)nc3)c3c(C#N)cnn3c2)cn1 (centres unmarked) [Example 384, 4-(6-(4-(6,6-dimethyl-3-azabicyclo[3.1.0]hexane-3-carbonyl)piperazin-1-yl)pyridin-3-yl)-6-(1-methyl-1H-pyrazol-4-yl)pyrazolo[1,5-a]pyridine-3-carbonitrile]	1040
CN(C(=O)N1CCN(c2ccc(-c3cc(-c4cnn(C)c4)cn4ncc(C#N)c34)cn2)CC1)C1CC1 [Example 386, 4-(5-(3-cyano-6-(1-methyl-1H-pyrazol-4-yl)pyrazolo[1,5-a]pyridine-4-yl)pyridin-2-yl)-N-cyclopropyl-N-methylpiperazine-1-carboxamide 2,2,2-trifluoroacetate]	1410
Cn1cc(-c2cc(-c3ccc(N4CCN(C(=O)N5CCC(C6CC6)C5)CC4)nc3)c3c(C#N)cnn3c2)cn1 (centres unmarked) [Example 388, 4-(6-(4-(3-cyclopropylpyrrolidine-1-carbonyl)piperazin-1-yl)pyridin-3-yl)-6-(1-methyl-1H-pyrazol-4-yl)pyrazolo[1,5-a]pyridine-3-carbonitrile]	346
CCC1CCN(C(=O)N2CCN(c3ccc(-c4cc(-c5cnn(C)c5)cn5ncc(C#N)c45)cn3)CC2)C1 (centres unmarked) [Example 389, 4-(6-(4-(3-ethylpyrrolidine-1-carbonyl)piperazin-1-yl)pyridin-3-yl)-6-(1-methyl-1H-pyrazol-4-yl)pyrazolo[1,5-a]pyridine-3-carbonitrile]	857
CC(C)C1CCN(C(=O)N2CCN(c3ccc(-c4cc(-c5cnn(C)c5)cn5ncc(C#N)c45)cn3)CC2)C1 (centres unmarked) [Example 390, 4-(6-(4-(3-isopropylpyrrolidine-1-carbonyl)piperazin-1-yl)pyridin-3-yl)-6-(1-methyl-1H-pyrazol-4-yl)pyrazolo[1,5-a]pyridine-3-carbonitrile]	951
Cn1cc(-c2cc(-c3ccc(N4CCN(C(=O)N5CCC(C(F)(F)F)C5)CC4)nc3)c3c(C#N)cnn3c2)cn1 (centres unmarked) [Example 391, 6-(1-methyl-1H-pyrazol-4-yl)-4-(6-(4-(3-(trifluoromethyl)pyrrolidine-1-carbonyl)piperazin-1-yl)pyridin-3-yl)pyrazolo[1,5-a]pyridine-3-carbonitrile]	986
Cn1cc(-c2cc(-c3ccc(N4CCN(CC5CC5)CC4)nc3)c3c(C#N)cnn3c2)cn1 [Example 394, 4-(6-(4-(cyclopropylmethyl)piperazin-1-yl)pyridin-3-yl)-6-(1-methyl-1H-pyrazol-4-yl)pyrazolo[1,5-a]pyridine-3-carbonitrile]	453
Cn1cc(-c2cc(-c3ccc(N4CCN(CCc5ccccn5)CC4)nc3)c3c(C#N)cnn3c2)cn1 [Example 395, 6-(1-methyl-1H-pyrazol-4-yl)-4-(6-(4-(2-(pyridine-2-yl)ethyl)piperazin-1-yl)pyridin-3-yl)pyrazolo[1,5-a]pyridine-3-carbonitrile]	490
COCCN1CCN(c2ccc(-c3cc(-c4cnn(C)c4)cn4ncc(C#N)c34)cn2)CC1 [Example 396, 4-(6-(4-(2-methoxyethyl)piperazin-1-yl)pyridin-3-yl)-6-(1-methyl-1H-pyrazol-4-yl)pyrazolo[1,5-a]pyridine-3-carbonitrile]	1460
CCOCCN1CCN(c2ccc(-c3cc(-c4cnn(C)c4)cn4ncc(C#N)c34)cn2)CC1 [Example 397, 4-(6-(4-(2-ethoxyethyl)piperazin-1-yl)pyridin-3-yl)-6-(1-methyl-1H-pyrazol-4-yl)pyrazolo[1,5-a]pyridine-3-carbonitrile]	1500
Cc1cc(C)nc(CN2CCN(c3ccc(-c4cc(-c5cnn(C)c5)cn5ncc(C#N)c45)cn3)CC2)n1 [Example 401, 4-(6-(4-((4,6-dimethylpyrimidin-2-yl)methyl)piperazin-1-yl)pyridin-3-yl)-6-(1-methyl-1H-pyrazol-4-yl)pyrazolo[1,5-a]pyridine-3-carbonitrile]	692
